The assay concerns the target T1, human KSP motor domain (KSP(367H)) (Homo sapiens, UniProt P52732).
T1 construct: were used to amplify the motor domain and the neck linker region; made in house; host or cells: E. coli BL21 (DE3), vector pRSETa
T1 sequence (P52732 18-359 limits assumed): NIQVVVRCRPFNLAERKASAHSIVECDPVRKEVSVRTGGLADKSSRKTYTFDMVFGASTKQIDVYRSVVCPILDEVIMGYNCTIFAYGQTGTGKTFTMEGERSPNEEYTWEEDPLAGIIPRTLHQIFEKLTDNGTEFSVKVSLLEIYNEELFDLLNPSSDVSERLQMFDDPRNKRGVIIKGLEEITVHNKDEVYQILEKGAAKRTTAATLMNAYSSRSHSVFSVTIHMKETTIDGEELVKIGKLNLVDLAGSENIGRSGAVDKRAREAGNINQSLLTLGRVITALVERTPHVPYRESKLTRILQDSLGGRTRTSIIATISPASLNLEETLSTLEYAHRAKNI
The assay can be described thus: Kinesin ATPhase In Vitro Assay. Format: biochemical. The following applies: kinesin motor domain with microtubules, 1 mM ATP, 23° C.; free phosphate by quinaldine red/ammonium molybdate, 540 nm. An excerpt:
I. Kinesin ATPhase In Vitro Assay
Cloning and Expression of Human Poly-Histidine Tagged KSP Motor Domain (KSP(367H))
Plasmids for the expression of the human KSP motor domain construct were cloned by PCR using a pBluescript full length human KSP construct (Blangy et al., Cell, vol. 83, pp1159-1169, 1995) as a template. The N-terminal primer 5′-[…] (SEQ. ID. NO.: 1) and the C-terminal primer 5′-[…] […] (SEQ. ID. NO.: 2) were used to amplify the motor domain and the neck linker region. The PCR products were digested with AseI and XhoI, ligated into the NdeIlXhoI digestion product of pRSETa (Invitrogen) and transformed into E. coli BL21 (DE3).
Cells were grown at 37 IC to an OD600 of 0.5. […]
The kinesin motor domain is incubated with microtubules, 1 mM ATP (1:1 MgCl2: Na-ATP), and compound at 23° C. in buffer containing 80 mM K-HEPES (pH 7.0), 1 mM EGTA, 1 mM DTT, 1 mM MgCl2, and 50 mM KCl. […] Free phosphate from the ATP hydrolysis reaction is measured via a quinaldine red/ammonium molybdate assay by adding 150 μl of quench C buffer containing a 2:1 ratio of quench A:quench B. Quench A contains 0.1 mg/mil quinaldine red and 0.14% polyvinyl alcohol; quench B contains 12.3 mM ammonium molybdate tetrahydrate in 1.15 M sulfuric acid. The reaction is incubated for 10 minutes at 23° C., and the absorbance of the phospho-molybdate complex is measured at 540 nm.

Molecules are shown by their SMILES.

As for `CC(C)[C@H](N)C(=O)N1CCC(c2cc(F)ccc2F)=CC1c1cccc(O)c1` (some centres unmarked) [Compound 2-2], the IC50 (in general, the concentration needed to halve the response being measured) was at most 15 µM.
`CNCC(C)CN(C)C(=O)N1CCC(c2cc(F)ccc2F)=CC1c1cccc(O)c1` (centres unmarked) [Compound 3-3, 4-(2,5-difluorophenyl)-6-(3-hydroxyphenyl)-N-methyl-N-[2-methyl-3-(methylamino)propyl]-3,6-dihydropyridine-1(2H)-carboxamide]: the IC50 is at most 15 µM.

These data come from US7622489B2, “Mitotic kinesin inhibitors” (Merck & Co., Inc., priority 2002, dated 2009).
